The test system of data set [1] is Escherichia coli CIP 54 127. In words: Biocidal activity test according to EN standards (EN 1040, EN 1275). The following applies: 50 to 100 mg/l in distilled water, contact time 15 to 30 mn. In kind it is cell-based.
In data set [2] the test system is albino rabbits. In words: Skin irritation/corrosion, OCDE 404 classification. Format: in vivo. As to conditions: 100 mg/l to 1000 mg/l.
Data set [3] relates to albino rabbits. In words: Eye irritation/corrosion, OCDE 405 classification. In kind it is in vivo. As to conditions: 100 mg/l to 1000 mg/l.
Data set [4] deals with Candida albicans IP 48.72. In words: Biocidal activity test according to EN standards (EN 1040, EN 1275). As to conditions: under light. Format: cell-based. Here is the method: The biocidal tests were carried out according to Directive NF EN 1040. Tests were conducted at the same time in the dark and under white light, corresponding to a moderate sunshine (400 KJ/M2) using an ordinary incandescent or halogen lamp. Some tests may be carried out up to 1.3 mW/Cm^2 […] The color change is all the more fast that the solution is illuminated under white light. The tests are performed in sterile glass flasks according to disinfection test standards. Illumination is a sun light illumination or an artificial light illumination and is compared with tests carried out in the dark (glass material is wrapped with aluminium foil). Biocidal activity tests are carried out according to EN standards, for example EN 1040, EN 1275, on reference microbial strains registered under ATCC and CIP, and validated by an accredited laboratory. […] These tests validate as biocide agents as defined by the European pharmacopoeia if the infectious titer reduction is higher than 5. Tests are carried out under white light versus a control in the dark. In all cases, white light accelerates the biocidal phenomenon, for example the biocidal activity under light requires a 15 min-contact time, as opposed to 30 mn in the dark. It should be noted that the DAP 2,8 series may have a “range effect”, that is to say there is a concentration range that is more efficient as compared to higher concentrations.

Data set [5] relates to Pseudomonas aeruginosa CIP 103 467. The description is as above. In kind it is cell-based. As to conditions: 50 to 100 mg/l in distilled water, contact time 15 to 30 mn.
Data set [6] relates to Legionella pneumophila subsp pneumophila CIP 103 854. Format: cell-based. As to conditions: 100 mg/l in distilled water, contact time 15 to 30 mn; dichlorhydrate solution.

Structures are written as SMILES.

As usually defined, the melting point is the temperature of the solid-liquid transition.

For the molecule `CCCCN(CCCC)c1ccc2c(c1)Nc1cc(N3CCN(C)CC3)ccc1S2` [Example 11, N,N-Dibutyl-[8-(4-methylpiperazin-1-yl)-10H-phenothiazin-2-yl]amine], the melting point fell in the range of 150 to 152 °C.
The molecule `CCCN(CCC)c1ccc2c(c1)Nc1cc(N3CCN(C)CC3)ccc1S2` [Example 8, [8-(4-Methyl-piperazin-1-yl)-10H-phenothiazin-2-yl]-dipropylamine] displayed a melting point of 122 to 124 °C.
The same measure, in the same setting: to `CCCNc1ccc2c(c1)Nc1cc(N(C)C)ccc1S2` [Example 13, N,N-Dimethyl-N′-propyl-10H-phenothiazine-2,8-diamine] belongs 158 to 160 °C.
On to `CN(C)c1ccc2c(c1)Nc1cc(N(C)C)ccc1S2` [Example 1, N,N,N′,N′-tetramethyl-10H-phenothiazine-2,8-diamine], for which the “Infectious titer reduction (log)” value was above 5.5 log in data set [1]; 3.2 log in data set [4] (100 mg/l in distilled water, contact time 30 mn); above 5.5 log in data set [5]; above 5.5 log in data set [6]. Further, the “irritant or corrosive activity, skin” value with albino rabbits [2] is listed as “non-irritant”. Also, in the data set with albino rabbits [3], the “irritant or corrosive activity, eyes” value is on record as “non-irritant”. Further, in data set [4] (250 or 500 mg/l, 30 mn of contact), the Infectious titer reduction is on record as below 2.8 log.

These data come from US9067900B2, “Diaminophenothiazine compounds, a method for preparing same and uses thereof” (PHARMA HYDRO DEVELOPMENT—P.H.D., priority 2007, dated 2015).
